According to patent US6468977B1, “Thiadiazole compounds useful as inhibitors of cysteine activity dependent enzymes” (Apotex Inc., priority 1998, dated 2002):
Structures can show the parent of a compound that is named as a salt.

Legend:
[1] = target: T1, Cathepsin B (Homo sapiens, UniProt P07858); assay: Inhibition of cathepsin B, enzyme inactivation kinetics; format: biochemical; conditions: 25° C.; for k3 / kinact/KI / k3/Ki (second order rate of inhibition): pH 6.0; for Ki: pH 6.0, substrate N-Cbz-Phe-Arg 7-amido-4-methylcoumarin 100 μM; for kinact/KI: read-out: k3/Ki (second order rate of inhibition)
T1 construct: purchased Athens Research and Technology, Inc
Protocol: Enzyme assays and kinetic measurements.
Enzyme regeneration. Cathepsin B (Athens Research and Technology, Inc.) was regenerated by incubation with 2.5 mM dithioerythritol, 2.5 mM EDTA and 0.005% (v/v) Brij-35 in 50 mM potassium phosphate pH 6.0 for 5 min. at 25° C. The excess of dithioerythritol was removed by size exclusion chromatography on a NAP-10 column (Pharmacia) equilibrated with 20 mM sodium acetate pH 5.0 containing 10 mM EDTA. Enzyme activated in this way was used within several hours.
Measurement of inactivation constants:
The reactions were incubated at 25° C. […] The reaction progress curves were recorded continuously over five half-lives. […] Briefly, the reaction progress curves were analyzed by non-linear regression to the exponential equation (2) and pseudo-first order rate coefficients (kapp.) were calculated for each inhibitor concentration. [drawing 36] Fluorescence=Ae^−k^app.^t+B (2)
Second order rate for inhibition (ki/Ki), ki and Ki were determined from equation (3) by plotting (I/kapp.) vs. [I]; [formula]
where Km is the Michaelis-Menten constant, [I] is inhibitor concentration and [S] is substrate concentration.

[2] = system: Transglutaminase; assay: Inhibition of transglutaminase, hydroxamate procedure, residual activity; format: biochemical; conditions: 100 μM (0.1 mM, 10% MeOH), one hour of incubation
Protocol: Inhibition of transglutaminase by compounds of formula I (Enzyme Assay).
Transglutaminase activity is measured by the […] hydroxamate procedure (J. Biol. Chem., 1971, 246, 1093). The tested compounds were dissolved in methanol and added to a buffered solution of purified Transglutaminase to give a final concentration of 0.1 mM (10% MeOH). After on hour of incubation, the solution was assayed for residual activity using the standard activity assay.

[3] = system: IL-1 induced proteoglycan degradation of articular cartilage; assay: IL-1-induced proteoglycan degradation of articular cartilage explants in vitro; format: cell-based, calf; conditions: 1×10^−6 M, IL-1 50 ng/ml, 72 h, p=0.023
Protocol: The effect of Apo501 on IL-1 (interleukin) induced proteoglycan degradation of articular cartilage from normal calf joints was investigated in-vitro. Articular cartilage was sliced aseptically from the distal forelimb joints of less than 6-month old calves. […] The pooled, punched cartilage was washed and incubated in 20 ml of Ham's F12 medium with 5% FBS and 3% antibiotics for 72 hr at 37° C. for recovery.
Recovered explants were washed and replaced with a fresh medium. 20 μl (10 μCi/ml) of sodium [^35S] sulfate was added and cartilage explants incubated for 72 h at 37° C. to radiolabel proteoglycans. The explants was washed thoroughly (5 times) to remove free radioisotope and incubated in serum free, F-12 medium (3% Ab) overnight. Explants were then incubated in quadruplicate in fresh, serum free mediums containing varied concentrations of Apo-501 (10^−7, 10^−6, 10^−5, and 10^−4) for 24 h. […] The extent of proteoglycan degradation in each cartilage treated with different concentrations of Apo501 was determined by measuring the radioactivity of [^35S] sulfate-glycosaminoglycans by a liquid scintillation counter. Sample of 100 μl medium was added to 5 ml of scintillation cocktail (Ready Safe, Beckmann) and counted. Proteoglycan degradation was expressed as radiolabelled glycosaminoglycans released into the media (counts per min per ml) per dry weight (mg) of cartilage.

k3 [1]	Ki [1]	kinact/KI [1]	melting point	Inhibition of the enzyme (residual activity) [2]	k3/Ki (second order rate of inhibition) [1]	Structure (SMILES)	Reduction of IL-1-induced degradation of newly synthesized proteoglycan [3]
0.032 s⁻¹	37 µM	864 M⁻¹ s⁻¹	161 to 162 °C	completely inhibits	–	COc1nsc(NC(=O)[C@H](C)NC(=O)[C@H](Cc2ccccc2)NC(=O)OCc2ccccc2)n1 [apo504, 3-methoxy-5-(N-carbobenzyloxy-L-phenylalanyl-L-alaninamido)-[1,2,4]thiadiazole]	–
0.013 s⁻¹	21 µM	–	–	–	658 M⁻¹ s⁻¹	COc1nsc(NC(=O)[C@H](Cc2ccccc2)NC(=O)OCc2ccccc2)n1 [apo201, 3-methoxy-5-(N-carbobenzyloxy-L-phenylalaninamido)-[1,2,4]thiadiazole]	–
0.013 s⁻¹	74 µM	175 M⁻¹ s⁻¹	–	–	–	CC(C)C[C@H](Nc1nc(-c2ccccc2)ns1)C(=O)N1CCC[C@H]1C(=O)O [apo5O9, N-(3-Phenyl-[1,2,4]thiadiazol-5-yl)-L-leucyl-L-proline]	–
0.032 s⁻¹	367 µM	–	–	–	84 M⁻¹ s⁻¹	COc1nsc(NC(=O)NC(CC(C)C)C(=O)NCCC(C)C)n1 (stereo not shown) [apo1073, 5-{3-methoxy-1,2,4-thiadiazolyl}carbamoyl-leucyl isoamylamide]	–

Further lines, the compound ahead of its results:

Structure (SMILES)	k3 [1]	Ki [1]	kinact/KI [1]	melting point	Inhibition of the enzyme (residual activity) [2]	k3/Ki (second order rate of inhibition) [1]	Reduction of IL-1-induced degradation of newly synthesized proteoglycan [3]
Cc1nsc(N[C@@H](CC(C)C)C(=O)N2CCC[C@H]2C(=O)O)n1 [apo510, N-(3-Methyl-[1,2,4]thiadiazol-5-yl)-L-leucyl-L-proline]	0.026 s⁻¹	447 µM	55 M⁻¹ s⁻¹	–	–	–	–
CC[C@H](C)[C@H](Nc1nc(OC)ns1)C(=O)N1CCC[C@H]1C(=O)OC [Example 12A, N-(3-methoxy-[1,2,4]thiadiazol-5-yl)-L-iso-leucyl-L-proline methyl ester]	–	–	–	129 to 130 °C	–	–	–
CC[C@H](C)[C@H](Nc1nc(OC)ns1)C(=O)N1CCC[C@H]1C(=O)O [Example 13, N-(3-methoxy-[1,2,4]thiadiazol-5-yl)-L-iso-leucyl-L-proline]	–	–	–	112 to 114 °C	–	–	–
COc1nsc(N[C@@H](CC(C)C)C(=O)N2CCC[C@H]2C(=O)O)n1 [apo501, N-{(3-methoxy)-[1,2,4]thiadiazol-5-yl}-L-leucyl-L-proline. tris(hydroxymethyl)methylamine salt]	0.015 s⁻¹	2.6 µM	5630 M⁻¹ s⁻¹	–	–	–	60%
CC(C)CC(Nc1nc(C(=O)O)ns1)C(=O)N1CCCC1C(=O)O (stereo not shown) [apo310]	0.089 s⁻¹	300 µM	293 M⁻¹ s⁻¹	–	–	–	–
COc1nsc(N[C@@H](CC(C)C)C(=O)N2CCC[C@H]2C(=O)O)n1 [Example 11A, N-(3-methoxy-[1,2,4]thiadiazol-5-yl)-L-leucyl-L-proline]	–	–	–	89 to 92 °C	–	–	–
COc1nsc(NC(=O)N[C@@H](CC(C)C)C(=O)N2CCC[C@H]2C(=O)O)n1 [apo503]	0.014 s⁻¹	390 µM	–	–	–	36 M⁻¹ s⁻¹	–
CC[C@H](C)[C@H](Nc1nc(C(=O)c2ccccc2)ns1)C(=O)N1CCC[C@H]1C(=O)O [Example 16, N-[3-benzoyl-[1,2,4]thiadiazol-5-yl]-L-iso-leucyl-L-proline]	–	–	–	132 to 134 °C	–	–	–
